Results from US7534778B2, “(20S)-1α-hydroxy-2-methylene-19-nor-bishomopregnacalciferol and its uses” (Wisconsin Alumni Research Foundation, priority 2001, dated 2009).
pEC50, pKi: −log10 of the molar value. “Also recorded” adds a separate entry of the source. Where two headings read alike, the source gives them in different places.

Key:
[1] = target: T1, full-length recombinant rat vitamin D receptor (Rattus norvegicus, UniProt P13053); assay: competition with [3H]-1,25(OH)2D3 for binding to vitamin D receptor; conditions: FIG. 2, read-out: Ki, competition with [3H]-1,25(OH)2D3 for VDR binding
T1 sequence (P13053 1-423): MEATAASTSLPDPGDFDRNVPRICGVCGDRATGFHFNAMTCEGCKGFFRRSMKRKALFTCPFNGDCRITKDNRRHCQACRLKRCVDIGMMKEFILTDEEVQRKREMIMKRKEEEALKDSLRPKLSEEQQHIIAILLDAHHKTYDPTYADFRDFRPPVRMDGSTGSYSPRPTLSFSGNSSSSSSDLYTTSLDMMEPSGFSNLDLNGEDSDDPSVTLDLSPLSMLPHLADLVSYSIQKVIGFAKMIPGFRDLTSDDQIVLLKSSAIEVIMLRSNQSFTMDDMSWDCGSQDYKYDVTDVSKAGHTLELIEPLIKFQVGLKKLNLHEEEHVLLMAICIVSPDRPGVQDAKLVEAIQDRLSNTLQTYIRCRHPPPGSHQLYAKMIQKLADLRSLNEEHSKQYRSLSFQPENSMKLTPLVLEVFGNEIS

[2] = tested on: calcium mobilization from bone; assay: bone calcium mobilization in vitamin D-deficient rats on low calcium diet; type: in vivo, rat; conditions: for bone calcium mobilization activity (serum calcium levels): low calcium diet (0.02%), overall / all dosages, FIG. 4
Experimental: (§1) Calcium mobilization from bone and intestinal calcium absorption in vitamin D-deficient animals. Using vitamin D-deficient rats on a low calcium diet (0.02%), the activities of these compounds in intestine and bone were tested.

[3] = tested on: HL-60 cells; assay: HL-60 cell differentiation into monocytes; type: cell-based; conditions: FIG. 3; for pEC50: HL-60 cells, read-out: EC50, HL60 differentiation
Experimental: The differentiation of HL-60 promyelocytic into monocytes was determined as described by Ostrem et al (J. Biol. Chem. 262, 14164-14171, 1987).
VDR binding and HL60 cell differentiation.

[4] = tested on: intestinal calcium transport; assay: intestinal calcium transport, everted gut sac method, vitamin D-deficient rats; type: in vivo, rat; conditions: for intestinal calcium transport: everted gut sac, vitamin D-deficient rats
Experimental: as §1
Intestinal calcium transport was evaluated in the same groups of animals using the everted gut sac method (FIG. 5).

[5] = serum calcium response in vitamin D-sufficient normal female rats; type: in vivo, rat; conditions: for serum calcium (hypercalcemia): normal female rats, 5000 pmol/day for 7 days, oral or intraperitoneal, 4 hours after last dose
Experimental: Serum calcium response in vitamin D-sufficient animals on a normal calcium diet. […] The doses were administered to two separate groups of animals by either the oral or intraperitoneal route, and serum calcium levels were assessed 4 hours after the last dose.

[6] = tested on: porcine intestinal vitamin D receptor; assay: binding to porcine intestinal vitamin D receptor; conditions: FIG. 2

pKi [1]	pEC50 ([3]; Homo sapiens)	calcemic activity from serum calcium ([5]; rats, chronic doses, FIG. 6)	binding to porcine receptor compared to standard 1,25-(OH)2D3 [6]	SMILES	mobilization of bone calcium ([2]; 260 pmol/day for 7 days)	pEC50 [3]	intestinal calcium transport activity ([4]; overall, dose not stated)	serum calcium (hypercalcemia) [5]	bone calcium mobilization activity (serum calcium levels) [2]	intestinal calcium transport ([4]; 260 pmol/day)	mobilization of bone calcium ([2]; 1300 pmol/day (5-fold))	intestinal calcium transport ([4]; 260 or 1300 pmol/day)	intestinal calcium transport activity ([4]; doses higher than 1300 pmol/day)	potency on HL-60 differentiation relative to 1,25(OH)2D3 [3]
–	–	–	–	C=C1/C(=C\C=C2/CCC[C@]3(C)[C@@H]([C@H](C)CCCC(C)(C)O)CC[C@@H]23)C[C@@H](O)C[C@@H]1O [1,25(OH)2D3, 1α,25-dihydroxyvitamin D3, reference compound]	–	8.30	–	–	increased serum calcium levels at all dosages	promotes a significant increase	–	–	–	–
9.52	–	–	–	C=C1[C@H](O)CC(=C/C=C2\CCC[C@]3(C)[C@@H](CC)CC[C@@H]23)C[C@H]1O [2-Mpregna, 1α-hydroxy-2-methylene-19-nor-pregnacalciferol]	did not result in mobilization of bone calcium	7.77	–	–	little, if any, activity in mobilizing calcium from bone	–	without effect	do not promote intestinal calcium transport	–	–
9.52	–	–	–	C=C1C(O)CC(=CC=C2CCCC3(C)C2CCC3C(C)C)CC1O (stereo not drawn) [2-MP, 1α-hydroxy-2-methylene-19-nor-homopregnacalciferol]	did not result in mobilization of bone calcium	8.22	–	–	little, if any, activity in mobilizing calcium from bone	–	without effect	calcium transport activity equivalent to 1,25(OH)2D3	decreased this activity	–
9.22	8.15	very little calcemic activity	bound equally well	C=C1[C@H](O)CC(=C/C=C2\CCC[C@]3(C)[C@@H]([C@@H](C)CC)CC[C@@H]23)C[C@H]1O [2-MbisP, (20S)-1α-hydroxy-2-methylene-19-nor-bishomopregnacalciferol]	did not result in mobilization of bone calcium	–	very little activity	no increase in serum calcium	very little bone calcium mobilization activity; also recorded: little, if any, activity in mobilizing calcium from bone	–	without effect	do not promote intestinal calcium transport	–	almost as potent as 1,25(OH)2D3

SMILES	pKi [1]	pEC50 ([3]; Homo sapiens)	calcemic activity from serum calcium ([5]; rats, chronic doses, FIG. 6)	binding to porcine receptor compared to standard 1,25-(OH)2D3 [6]	mobilization of bone calcium ([2]; 260 pmol/day for 7 days)	pEC50 [3]	intestinal calcium transport activity ([4]; overall, dose not stated)	serum calcium (hypercalcemia) [5]	bone calcium mobilization activity (serum calcium levels) [2]	intestinal calcium transport ([4]; 260 pmol/day)	mobilization of bone calcium ([2]; 1300 pmol/day (5-fold))	intestinal calcium transport ([4]; 260 or 1300 pmol/day)	intestinal calcium transport activity ([4]; doses higher than 1300 pmol/day)	potency on HL-60 differentiation relative to 1,25(OH)2D3 [3]
C[C@H](CCCC(C)(C)O)[C@H]1CC[C@H]2/C(=C/C=C3C[C@@H](O)C[C@H](O)C3)CCC[C@]12C [1,25(OH)2 19-nor-D3, 1α,25-dihydroxy-19-nor-vitamin D3, reference compound]	9.70	–	–	–	did not result in mobilization of bone calcium	8.40	devoid of intestinal calcium transport activity	produced frank hypercalcemia	–	–	–	–	–	–
